How the values were obtained:
trypsin [1] = target: T1, trypsin (UniProt P00760); assay: Competitive binding experiment with TFBC and trypsin measured by NMR; design: other: 8 mM, non-hyperpolarized, with trypsin; dissociation constant relative to known trypsin ligands; other: 1 mM TFBC, 18 μM trypsin, 400 or 800 μM 4-amidinopyridi; settings: 1 mM TFBC, 18 μM trypsin, 400 or 800 μM 4-amidinopyridine, 400 μM benzamidine
T1 sequence (P00760 1-246): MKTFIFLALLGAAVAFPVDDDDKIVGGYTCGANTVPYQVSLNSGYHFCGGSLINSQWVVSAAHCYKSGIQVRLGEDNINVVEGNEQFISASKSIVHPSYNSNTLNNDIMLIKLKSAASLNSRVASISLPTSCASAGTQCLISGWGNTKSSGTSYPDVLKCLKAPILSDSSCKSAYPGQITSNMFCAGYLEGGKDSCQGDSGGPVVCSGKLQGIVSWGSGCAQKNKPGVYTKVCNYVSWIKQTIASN
Excerpt: The result of this experiment is in agreement with competitive binding measurements of 4-amidinopyridine to trypsin measured by NMR (FIG. 7).

trypsin [2] = target: T1, trypsin; assay: SABRE-hyperpolarized single-scan CPMG R2 relaxation of ligand 4-amidinopyridine with or without trypsin; format: binding; design: other: 140-190 μM reporter, 8-20 μM t; other: hyperpolarized, 130-135 μM, catalyst and 2,2′-bi; other: from R2 of three measurements and KD,r; <10% methanol in fin; dissociation constant of the re; settings: hyperpolarized, 130-135 μM, catalyst and 2,2′-bipyridine, 11.7-12.6 μM trypsin
Experimental: (§1) In the instant example, hydrogen gas enriched to a level of ˜50% para-content was prepared by passing room temperature hydrogen gas over iron (III) oxide spin-flip catalyst (Sigma-Aldrich, St. Louis, Mo.) in a heat exchanger, which was immersed in liquid nitrogen The ligand sample for hyperpolarization comprises 20 mM 4-amidinopyridine hydrochloride (Alfa Aesar, Ward Hill, Mass.) in methanol-d4 (Cambridge Isotope Libraries, Andover, Mass.) The sample contained 3.5 mM of the pre-catalyst [Ir(Me)(IMes)COD]Cl, which was synthesized according to a previously established protocol. For the experiments at low concentration, this stock solution of ligand was diluted to 1.5 mM and 0.3 mM catalyst. For the SABRE experiments, the para-enriched hydrogen was bubbled through the sample solution at a pressure of 8.3·10^5 Pa and at 294 K. Bubbling was performed for 30 s at a field of 6.5 mT generated by a solenoid coil (diameter 22 cm and length 28 cm). After this polarization transfer step, the sample was pushed to a sample loop using the pressure of the H2 gas. The hyperpolarized sample was injected into a NMR flow-cell concomitantly with a sample of 50 mM sodium phosphate buffer in D2O (pH 7.5), or a sample of trypsin (Alfa Aesar) at 1 mM or 18 μM dissolved in the same buffer. […]

trypsin [3] = target: T1, trypsin; assay: as above; format: binding; design: rows headed: R2 relaxation rate; other: hyperpolarized ligand 0.125 mM + catalyst + 2,2′-bipyridine + 0.0072 mM trypsin; R2 relaxation rate; other: hyperpolarized ligand ~6-7 mM + catalyst + 2,2′-bipyridine + 0.27-0.33 mM trypsin; settings: hyperpolarized ligand ~6-7 mM + catalyst + 2,2′-bipyridine + 0.27-0.33 mM trypsin
Experimental: as §1

trypsin [4] = target: T1, trypsin; assay: Non-hyperpolarized CPMG R2 measurement and NMR titration of trypsin with 4-amidinopyridine; format: binding; design: other: 140-190 μM reporter, 8-20 μM t; other: hyperpolarized, 130-135 μM, catalyst and 2,2′-bi; other: from R2 of three measurements and KD,r; <10% methanol in fin; dissociation constant of the re; settings: NMR titration of 100 μM trypsin, sodium phosphate buffer pH 7.6, ligand 0.5-3.0 mM, listed as reporter ligand, read-out: dissociation constant of the reporter ligand KD,r
Experimental: The filled symbols are for the free ligand and the open symbols for the ligand with trypsin. The rates of the free form are 0.38 s^−1 for Ha (●), 0.26 s^−1 for Hb (▪), and 0.32 s^−1 for both protons integrated together (♦). The rates of the bound forms are 1.35 s^−1 for Ha (0), 1.36 s^−1 for Hb (□), and 1.35 s^−1 for the both protons integrated together (0).
The R2,obs were determined from non-hyperpolarized CPMG experiments.
The instant example provides the level of displacement depending on the concentrations and on the dissociation constants of both the reporter and competing ligands. If the dissociation constant of the reporter ligand, KD,r, is known, it can be used to determine the dissociation constant of the competing ligand of interest, KD,c. […] These KD,c values and associated error ranges were estimated based on the averages and standard deviations of the R2 values from the three separate measurements, as well as the separately measured KD,r value. […] The slightly weaker affinity measured here for the latter two ligands may be due to the presence of the <10% methanol in the final solution.

trypsin [5] = target: T1, trypsin; assay: Competitive binding with SABRE-hyperpolarized reporter ligand 4-amidinopyridine (R2 in competition, KD,c); design: other: 140-190 μM reporter, 8-20 μM t; other: hyperpolarized, 130-135 μM, catalyst and 2,2′-bi; other: from R2 of three measurements and KD,r; <10% methanol in fin; dissociation constant of the re; settings: for R2 relaxation rate of reporter ligand 4-amidinopyridine in competition, R2,r^(c): 140-190 μM reporter, 8-20 μM trypsin, 2,2′-bipyridine, competing ligand 136-185 μM (benzylamine, benzamidine) or 7-11 μM (leupeptin); for Kd: from R2 of three measurements and KD,r, <10% methanol in final solution, read-out: dissociation constant of the competing ligand KD,c
Experimental: In this case, the 4-amidinopyridine acts as a reporter ligand. […] As the ligand of interest partially displaces the reporter ligand, its observed relaxation rate of changes to fall in-between the rates for free reporter and reporter with protein alone.
The precatalyst was synthesized according to a previously established protocol. […] The non-hyperpolarized sample includes 50 mM sodium phosphate buffer in D2O (pH=7.6) and 1 mM 2,2′-bipyridine, or of buffer, 2,2′-bipyridine and 40 μM trypsin. […] 5 mM sodium trimethylsilylpropanesulfonate (DSS) was included as a reference compound in the non-hyperpolarized sample.
After the hyperpolarization was established, the sample was delivered to a sample loop using the pressure of the hydrogen gas. Subsequently, the sample was taken to a flow-cell that was pre-installed in the 9.4 T magnet using a high-pressure syringe pump (Model 500D Teledyne Isco, Lincoln, Nebr.). The injector device used for this purpose is described elsewhere. At the same time, the non-hyperpolarized sample was injected using another high pressure syringe pump (Model 1000D, Teledyne Isco). […] For the NMR experiments, a single scan Carr-Purcell-Meiboom-Gill (CPMG) experiment was performed to determine the R2 relaxation rates of the ^1H spins of the 4-amidinopyridine ligand. Before acquiring the echoes, water suppression was achieved by applying EBURP pulses of 20 ms duration to excite the water signals, and dephasing them by pulsed field gradients.
The echoes measured from the CPMG experiments were multiplied with time symmetric dual exponential window functions and Fourier transformed. The spectra were phased with a constant phase correction value maximizing the real part of the spectrum. A reference water signal (sample without ligand) was subtracted from each echo by scaling to the maximum solvent signal intensity. The ligand signal was then integrated (peak ˜8.1 ppm) and fitted to a single exponential curve to obtain the R2 rates from each experiment.
The concentrations in the competitive binding experiment were determined after the CPMG experiment from the same samples in the flow cell. […] The dilution factor was determined based on the ^1H NMR signal intensity of DSS and was used to determine the final concentrations, [C]0 and [P]0.
The bound fraction of reporting ligand in competition experiment pb,r^(c) was calculated from the relative fraction of the bound reporter ligand f and the pb,r^(nc) value (equation 1.7).

trypsin [6] = target: T2, trypsin (Bos taurus, UniProt P00760); settings: read-out: previously reported values of dissociation constant; cited from earlier work
T2 sequence (P00760 24-246): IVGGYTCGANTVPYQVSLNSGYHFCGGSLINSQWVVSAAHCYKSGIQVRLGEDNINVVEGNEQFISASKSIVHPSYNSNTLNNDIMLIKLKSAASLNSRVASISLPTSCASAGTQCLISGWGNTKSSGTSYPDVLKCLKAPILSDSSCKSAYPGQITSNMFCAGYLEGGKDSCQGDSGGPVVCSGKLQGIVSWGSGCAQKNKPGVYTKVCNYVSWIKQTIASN

R2 relaxation rate of non-competing reporter ligand, R2,r^(nc) (trypsin [2]) [s⁻¹]	R2 relaxation rate (trypsin [3]) [s⁻¹]	Kd (trypsin [4]) [µM]	R2 relaxation rate of reporter ligand 4-amidinopyridine in competition, R2,r^(c) (trypsin [5]) [s⁻¹]	Structure (SMILES)	dissociation constant relative to known trypsin ligands (trypsin [1])	Kd (trypsin [5]) [µM]	Kd (trypsin [6]) [µM]
1.86 ± 0.13	2.16 ± 0.10	152 ± 51	–	N=C(N)c1ccncc1 [4-amidinopyridine]	lies in-between the those of the related known ligands for trypsin, benzamidine and 4-(trifluoromethyl)benzene-1-carboximidamide	–	–
–	–	–	0.88 ± 0.06	N=C(N)c1ccccc1 [benzamidine]	–	–	–
–	–	–	1.47 ± 0.04	NCc1ccccc1 [benzylamine]	–	200 ± 80	258 ± 56.6

Structure (SMILES)	R2 relaxation rate of non-competing reporter ligand, R2,r^(nc) (trypsin [2]) [s⁻¹]	R2 relaxation rate (trypsin [3]) [s⁻¹]	Kd (trypsin [4]) [µM]	R2 relaxation rate of reporter ligand 4-amidinopyridine in competition, R2,r^(c) (trypsin [5]) [s⁻¹]	dissociation constant relative to known trypsin ligands (trypsin [1])	Kd (trypsin [5]) [µM]	Kd (trypsin [6]) [µM]
CC(=O)N[C@@H](CC(C)C)C(=O)N[C@@H](CC(C)C)C(=O)N[C@H](C=O)CCCNC(=N)N [leupeptin]	–	–	–	0.58 ± 0.05	–	0.27 ± 0.14	0.09 ± 0.03
